Source: ChEMBL document CHEMBL3351925, “The Oxeatamides: nitrogenous spongian diterpenes from the New Zealand marine sponge Darwinella oxeata” (J Nat Prod, 2014)
pIC50: −log10 of the molar value.

Assay: Cytotoxicity against human HL60 cells after 48 hrs by MTT assay
Type: functional, cell-based
Conditions: HL-60, 48 h
`C[C@@H](C(=O)O)c1c([C@@]2(C)CCCC(C)(C)C2)ccc2c1CN(CCc1cnc[nH]1)C2=O` gave a pIC50 of less than 5.00.
For `CC(C)CCN1Cc2c(ccc([C@@]3(C)CCCC(C)(C)C3)c2[C@@H](C)C(=O)O)C1=O`, the pIC50 was less than 5.00.
`COC(=O)CN1Cc2c(ccc([C@@]3(C)CCCC(C)(C)C3)c2[C@@H](C)C(=O)O)C1=O` gave a pIC50 of less than 5.00.
In the case of `C[C@@H](C(=O)O)c1c([C@@]2(C)CCCC(C)(C)C2)ccc2c1CN(CC(=O)O)C2=O`, the pIC50 was less than 5.00.
`C[C@@H](C(=O)O)c1c([C@@]2(C)CCCC(C)(C)C2)ccc2c1CN(CCc1ccccc1)C2=O` showed a pIC50 of less than 5.00.
In the case of `CCC(C)CN1Cc2c(ccc([C@@]3(C)CCCC(C)(C)C3)c2[C@@H](C)C(=O)O)C1=O` (some centres undefined), the pIC50 was less than 5.00.
`CC(C)CN1Cc2c(ccc([C@@]3(C)CCCC(C)(C)C3)c2[C@@H](C)C(=O)O)C1=O` showed a pIC50 of less than 5.00.
`C[C@@H](C(=O)O)c1c([C@@]2(C)CCCC(C)(C)C2)ccc2c1C(=O)N(CC(=O)O)C2` showed a pIC50 of less than 5.00.
Compound `C[C@@H](C(=O)O)c1c([C@@]2(C)CCCC(C)(C)C2)ccc2c1CN(CCN)C2=O` has a pIC50 of less than 5.00.
